Measured values taken from patent publication US20240415918A1, “Polypeptide and its use as a CCK receptor agonist/antagonist” (Centre for Regenerative Medicine & Health, Hong Kong …, priority 2021, published 2024).

Legend:
Type in all cases: cell-based
[1] = target: T1, CCK-B receptors (CHO-CCK) (Homo sapiens, UniProt P32239); experiment: Calcium flux (Fluo-8) agonist test on CHO-CCK model cells; details: CHO-CCK cells
T1 construct: expressed in transfected cells; host or cells: CHO (CHO-CCK model cells)
T1 sequence (P32239 1-447): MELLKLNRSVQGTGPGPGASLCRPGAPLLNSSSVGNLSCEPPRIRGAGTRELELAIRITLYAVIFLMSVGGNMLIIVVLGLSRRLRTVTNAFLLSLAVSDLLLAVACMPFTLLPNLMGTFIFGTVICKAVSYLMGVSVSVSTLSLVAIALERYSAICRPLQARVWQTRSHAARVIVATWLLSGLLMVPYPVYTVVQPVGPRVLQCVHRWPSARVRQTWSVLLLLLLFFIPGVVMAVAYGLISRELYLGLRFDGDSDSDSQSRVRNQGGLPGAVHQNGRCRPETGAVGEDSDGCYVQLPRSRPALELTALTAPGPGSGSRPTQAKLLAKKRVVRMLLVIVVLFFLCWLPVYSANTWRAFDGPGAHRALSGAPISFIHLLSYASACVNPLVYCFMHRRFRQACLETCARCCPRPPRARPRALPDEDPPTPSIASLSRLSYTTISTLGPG
Method in brief: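 Agonist-mode Fluo-8 calcium flux read on CHO-CCK cells after dye loading 30 min at 37 °C plus 30 min at room temperature.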

[2] = test system: neocortex of senile mice; experiment: Long-term potentiation, in vitro field potential recording of brain slices (MED64), senile mice; details: compound injected for five minutes
Text: Long-term potentiation (LTP) is considered by researchers to be one of the memory mechanisms. We used an in vitro electrophysiological electrical signal recording method to investigate whether compound HT-267 can induce long-term potentiation in the neocortex of senile mice.
We used an MED64 low-noise multi-electrode recording system to record the electrical signals of brain slices cultured in vitro.

[3] = test system: neocortex of Alzheimer's mice; experiment: Long-term potentiation, in vitro field potential recording of brain slices (MED64), Alzheimer's mice; details: compound injected for five minutes
Text: An in vitro electrophysiological electrical signal recording method was used to investigate whether compound HT-267 can induce long-term potentiation in the neocortex of Alzheimer's mice. The MED64 low-noise multi-electrode recording system was used to record the electrical signals of brain slices cultured in vitro. […] It was shown that compound HT-267 could induce long-term potentiation in the neocortex of Alzheimer's mice.

[4] = test system: neocortex of memory-deficient mice; experiment: Long-term potentiation, in vitro field potential recording of brain slices (MED64), memory-deficient mice; details: compound injected for five minutes
Text: An in vitro electrophysiological electrical signal recording method was used to investigate whether compound HT-267, compound HT-177, and compound HT-178 can induce long-term potentiation in the neocortex of memory-deficient mice. The MED64 low-noise multi-electrode recording system was used to record the electrical signals of brain slices cultured in vitro.

EC50 ([1]; Fluo-8 calcium flux, 100% control = 20 nM CCK8): 0.113 nM
agonistic/antagonistic activity on CCK-B receptors (in words) ([1]; calcium signal): more active
Structure (SMILES): CSCC[C@H](NC(=O)[C@@H](Cc1c[nH]c2ccccc12)NC(C)=O)C(=O)N[C@@H](CC(=O)O)C(=O)N[C@@H](Cc1cccc(Br)c1)C(N)=O [HT-267, Ac-D-Trp-Met-Asp-Phe(3-Br)-NH2]
basal field potential after administration (long-term potentiation) [2]: enhanced, and the enhancement lasted for more than one hour
basal field potential after administration (long-term potentiation) [3]: enhanced, and the enhancement lasted for more than one hour
basal field potential after administration (long-term potentiation) [4]: enhanced, and the enhancement lasted for more than one hour
